Test results published in ChEMBL document CHEMBL6083277, “Discovery of SZJK-0421: A Novel Potent, Low Toxicity, Selective Second Generation of CRM1 Inhibitor for the Treatment of Both Hematological and Solid Tumors” (J Med Chem, 2024).
Calls of active or inactive are those of the source. The rule behind the calls is not given here.

Assays:
[1] = Metabolic stability in rat liver microsomes assessed as intrinsic clearance measured upto 60 mins in presence of NADPH by LC/MS-MS analysis; assay type: ADME, Microsome; details: read-out: CLH
MOLM-13 = assay: Antiproliferative activity against human MOLM-13 cells assessed as inhibition of cell growth incubated for 72 hrs by celltiter-glo assay; assay type: functional, cell-based; details: MOLM-13, 72 h
[2] = biological target: Ran-specific GTPase-activating protein (Homo sapiens, UniProt P43487); assay: Inhibition of RANBP1 nuclear export in human U2OS cells assessed as increase in fluorescence intensity measured for 15 mins by DAPI staining based fluorescence microscopic analysis; assay type: cell-based
Ran-specific GTPase-activating protein, sequence (P43487 whole entry): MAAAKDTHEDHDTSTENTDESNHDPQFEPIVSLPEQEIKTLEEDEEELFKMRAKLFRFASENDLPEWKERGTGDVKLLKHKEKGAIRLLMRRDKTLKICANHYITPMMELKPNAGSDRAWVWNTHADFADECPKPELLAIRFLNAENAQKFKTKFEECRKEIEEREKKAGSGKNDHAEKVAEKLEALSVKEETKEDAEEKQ

[3] = biological target: Voltage-gated inwardly rectifying potassium channel KCNH2 (Homo sapiens, UniProt Q12809); assay: Inhibition of hERG in HEK293 cells; assay type: toxicity, cell-based
Voltage-gated inwardly rectifying potassium channel KCNH2, sequence (Q12809 whole entry): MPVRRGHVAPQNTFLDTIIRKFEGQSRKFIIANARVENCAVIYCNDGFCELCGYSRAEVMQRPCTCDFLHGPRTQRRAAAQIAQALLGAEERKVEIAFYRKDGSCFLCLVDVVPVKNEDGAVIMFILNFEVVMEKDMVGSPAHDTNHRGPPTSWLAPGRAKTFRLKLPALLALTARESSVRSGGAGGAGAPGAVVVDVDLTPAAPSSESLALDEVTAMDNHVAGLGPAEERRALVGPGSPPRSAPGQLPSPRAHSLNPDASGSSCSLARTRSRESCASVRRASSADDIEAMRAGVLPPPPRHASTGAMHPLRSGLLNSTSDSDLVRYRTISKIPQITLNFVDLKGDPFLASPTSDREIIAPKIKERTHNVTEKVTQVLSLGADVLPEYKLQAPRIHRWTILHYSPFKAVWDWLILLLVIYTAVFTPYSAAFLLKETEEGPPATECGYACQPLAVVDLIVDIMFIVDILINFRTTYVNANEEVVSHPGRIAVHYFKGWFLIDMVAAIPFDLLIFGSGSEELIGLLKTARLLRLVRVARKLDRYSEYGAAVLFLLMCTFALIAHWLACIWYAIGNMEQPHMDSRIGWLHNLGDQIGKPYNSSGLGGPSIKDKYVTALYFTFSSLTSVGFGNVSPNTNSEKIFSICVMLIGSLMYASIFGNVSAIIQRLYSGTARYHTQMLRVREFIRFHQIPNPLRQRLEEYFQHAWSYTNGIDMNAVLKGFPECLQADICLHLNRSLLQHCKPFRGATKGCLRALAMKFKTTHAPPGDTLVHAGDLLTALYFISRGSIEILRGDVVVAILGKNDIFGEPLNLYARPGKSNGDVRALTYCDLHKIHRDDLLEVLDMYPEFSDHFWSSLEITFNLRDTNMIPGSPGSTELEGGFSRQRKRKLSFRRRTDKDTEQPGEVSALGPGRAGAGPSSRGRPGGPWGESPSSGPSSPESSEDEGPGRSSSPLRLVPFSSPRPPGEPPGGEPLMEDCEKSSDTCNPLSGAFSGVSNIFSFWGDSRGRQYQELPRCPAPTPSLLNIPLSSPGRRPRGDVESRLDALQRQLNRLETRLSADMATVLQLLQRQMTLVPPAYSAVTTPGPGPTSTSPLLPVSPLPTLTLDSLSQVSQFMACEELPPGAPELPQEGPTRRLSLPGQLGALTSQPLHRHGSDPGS

[4] = Cmax in male Sprague-Dawley rat plasma at 10 mg/kg, IG measured at 6 hrs by LC-MS/MS analysis; assay type: ADME, organism-based; details: po
[5] = Toxicity in NOD-SCID mouse assessed as shortening of villi in intestine at 15 mg/kg, po measured every 2 days for 21 days by H and E staining based analysis; assay type: organism-based; details: in vivo, 504 h, time 21 day
[6] = Antiproliferative activity against human ARP-1 cells assessed as inhibition of cell growth incubated for 72 hrs by celltiter-glo assay; assay type: functional, cell-based; details: ARP-1, 72 h
[7] = Toxicity in NOD-SCID mouse implanted with human MM1.S cells assessed as body weight loss at 15 mg/kg, po measured upto 21 days; assay type: organism-based; details: in vivo, 504 h, time < 21 day
MM1.S [8] = assay: Antiproliferative activity against human MM1.S cells assessed as inhibition of cell growth incubated for 72 hrs by celltiter-glo assay; assay type: functional, cell-based
[9] = AUC (0 to t) in male Sprague-Dawley rat at 2 mg/kg, iv measured upto 30 hrs by LC-MS/MS analysis; assay type: ADME, organism-based; details: in vivo
[10] = Toxicity in BALB/c mouse assessed as appearance of loose stools at 60 mg/kg, po administered once daily for 21 days; assay type: organism-based; details: in vivo, 504 h, time 21 day
RPMI-8226 = assay: Antiproliferative activity against human RPMI-8226 cells assessed as inhibition of cell growth incubated for 72 hrs by celltiter-glo assay; assay type: functional, cell-based; details: RPMI-8226, 72 h
MM1.S [11] = assay: Inhibition of CRM1 protein expression in human MM1.S cells at 0.25 to 1.25 uM by Western blot analysis; assay type: functional, cell-based; details: dose 0.25-1.25 µM, time 2-24 hrs
MM1.S [12] = assay: Induction of apoptosis in human MM1.S cells assessed as increase in FOXO3A signal intensity; assay type: functional, cell-based
[13] = AUC in male Sprague-Dawley rat brain at 10 mg/kg, IG measured at 6 hrs by LC-MS/MS analysis; assay type: ADME, organism-based; details: po
[14] = Metabolic stability in mouse liver microsomes assessed as intrinsic clearance measured upto 60 mins in presence of NADPH by LC/MS-MS analysis; assay type: ADME, Microsome; details: read-out: CLH
[15] = Metabolic stability in human liver microsomes assessed as intrinsic clearance measured upto 60 mins in presence of NADPH by LC/MS-MS analysis; assay type: ADME, Microsome; details: read-out: CLH
[16] = Metabolic stability in mouse liver microsomes assessed as half life measured upto 60 mins in presence of NADPH by LC/MS-MS analysis; assay type: ADME, Microsome
LAMA-84 = assay: Antiproliferative activity against human LAMA-84 cells assessed as inhibition of cell growth incubated for 72 hrs by celltiter-glo assay; assay type: functional, cell-based; details: LAMA-84, 72 h
BXPC-3 = assay: Antiproliferative activity against human BXPC-3 cells assessed as inhibition of cell growth incubated for 72 hrs by celltiter-glo assay; assay type: functional, cell-based; details: BXPC-3, 72 h
[17] = Half life in male Sprague-Dawley rat at 2 mg/kg, iv measured upto 30 hrs by LC-MS/MS analysis; assay type: ADME, organism-based; details: in vivo
[18] = Metabolic stability in dog liver microsomes assessed as half life measured upto 60 mins in presence of NADPH by LC/MS-MS analysis; assay type: ADME, Canis lupus familiaris, Microsome
[19] = Metabolic stability in rat liver microsomes assessed as half life measured upto 60 mins in presence of NADPH by LC/MS-MS analysis; assay type: ADME, Microsome
[20] = Metabolic stability in monkey liver microsomes assessed as intrinsic clearance measured upto 60 mins in presence of NADPH by LC/MS-MS analysis; assay type: ADME, Macaca mulatta, Microsome; details: rhesus monkey, read-out: CLH
[21] = Toxicity in BALB/c mouse assessed as appearance of erectile hair at 60 mg/kg, po administered once daily for 21 days; assay type: organism-based; details: in vivo, 504 h, time 21 day
[22] = Metabolic stability in dog liver microsomes assessed as intrinsic clearance measured upto 60 mins in presence of NADPH by LC/MS-MS analysis; assay type: ADME, Canis lupus familiaris, Microsome; details: read-out: CLH
MV4-11 = assay: Antiproliferative activity against human MV4-11 cells assessed as inhibition of cell growth incubated for 72 hrs by celltiter-glo assay; assay type: functional, cell-based; details: MV4-11, 72 h
[23] = Toxicity in BALB/c mouse assessed as decrease in body weight at 30 mg/kg, po administered once daily for 21 days; assay type: organism-based; details: in vivo, 504 h, time 21 day
[24] = Toxicity in NOD-SCID mouse assessed as decrease in villus height to crypt depth ratio at 60 mg/kg, po measured every 2 days for 21 days by H and E staining based analysis; assay type: organism-based; details: in vivo, 504 h, time 21 day
[25] = Oral bioavailability in male Sprague-Dawley rat at 10 mg/kg measured upto 30 hrs by LC-MS/MS analysis; assay type: ADME, organism-based; details: in vivo
SW872 = assay: Antiproliferative activity against human SW872 cells assessed as inhibition of cell growth incubated for 72 hrs by celltiter-glo assay; assay type: functional, cell-based; details: SW872, 72 h
MM1.S [26] = assay: Inhibition of CRM1 protein expression in human MM1.S cells by Western blot analysis; assay type: functional, cell-based; details: dose 0.25-1.25 µM
[27] = biological target: Exportin-1 (Homo sapiens) (UniProt O14980); assay: Reversible binding affinity to CRM1 in human U2OS cells incubated for 4 hrs by DAPI staining based fluorescence microscopic analysis; assay type: cell-based
Exportin-1 (Homo sapiens), sequence (O14980 whole entry): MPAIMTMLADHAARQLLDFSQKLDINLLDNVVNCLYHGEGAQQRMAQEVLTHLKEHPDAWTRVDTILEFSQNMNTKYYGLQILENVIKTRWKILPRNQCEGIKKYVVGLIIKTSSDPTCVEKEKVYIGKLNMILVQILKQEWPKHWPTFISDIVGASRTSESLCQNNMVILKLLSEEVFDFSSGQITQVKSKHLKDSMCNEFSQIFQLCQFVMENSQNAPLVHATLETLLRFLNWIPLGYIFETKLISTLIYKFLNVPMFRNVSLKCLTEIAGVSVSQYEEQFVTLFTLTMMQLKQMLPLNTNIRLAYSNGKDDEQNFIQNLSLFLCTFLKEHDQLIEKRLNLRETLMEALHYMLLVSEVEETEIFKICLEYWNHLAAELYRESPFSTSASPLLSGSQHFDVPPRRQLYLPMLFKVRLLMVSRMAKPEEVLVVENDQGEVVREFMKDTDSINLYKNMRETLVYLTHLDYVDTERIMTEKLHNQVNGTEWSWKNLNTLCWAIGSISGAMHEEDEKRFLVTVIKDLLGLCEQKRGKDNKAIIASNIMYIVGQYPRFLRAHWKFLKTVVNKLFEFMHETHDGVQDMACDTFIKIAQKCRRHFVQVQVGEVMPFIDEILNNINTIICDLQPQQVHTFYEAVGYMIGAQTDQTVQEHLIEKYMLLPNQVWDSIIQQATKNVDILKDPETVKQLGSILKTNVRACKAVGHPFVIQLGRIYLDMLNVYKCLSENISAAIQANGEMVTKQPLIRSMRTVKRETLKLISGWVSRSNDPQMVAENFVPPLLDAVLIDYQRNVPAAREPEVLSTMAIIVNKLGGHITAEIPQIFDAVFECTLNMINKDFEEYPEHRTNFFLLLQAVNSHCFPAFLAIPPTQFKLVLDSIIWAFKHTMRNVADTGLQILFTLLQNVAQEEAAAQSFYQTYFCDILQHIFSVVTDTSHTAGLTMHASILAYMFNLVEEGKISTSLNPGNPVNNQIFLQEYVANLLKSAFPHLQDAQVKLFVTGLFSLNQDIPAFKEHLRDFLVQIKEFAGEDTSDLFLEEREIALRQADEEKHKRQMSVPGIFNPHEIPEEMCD

ARH-77 = assay: Antiproliferative activity against human ARH-77 cells assessed as inhibition of cell growth incubated for 72 hrs by celltiter-glo assay; assay type: functional, cell-based; details: ARH-77, 72 h
HCT-116 = assay: Antiproliferative activity against human HCT-116 cells assessed as inhibition of cell growth incubated for 72 hrs by celltiter-glo assay; assay type: functional, cell-based; details: HCT-116, 72 h
[28] = Metabolic stability in monkey liver microsomes assessed as half life measured upto 60 mins in presence of NADPH by LC/MS-MS analysis; assay type: ADME, Macaca mulatta, Microsome; details: rhesus monkey
[29] = AUC in male Sprague-Dawley rat plasma at 10 mg/kg, IG measured at 6 hrs by LC-MS/MS analysis; assay type: ADME, organism-based; details: po
[30] = Tmax in male Sprague-Dawley rat at 10 mg/kg, po measured upto 30 hrs by LC-MS/MS analysis; assay type: ADME, organism-based; details: in vivo
LoVo = assay: Antiproliferative activity against human LoVo cells assessed as inhibition of cell growth incubated for 72 hrs by celltiter-glo assay; assay type: functional, cell-based
[31] = Toxicity in NOD-SCID mouse assessed as loss of crypt depth in intestine at 60 mg/kg, po measured every 2 days for 21 days by H and E staining based analysis; assay type: organism-based; details: in vivo, 504 h, time 21 day
MM1.S [32] = assay: Induction of apoptosis in human MM1.S cells at 0.5 to 1 uM incubated for 48 hrs by Annexin V-FITC/PI staining based flow cytometry analysis; assay type: functional, cell-based; details: dose 0.5-1 µM
[33] = AUC (0 to infinity) in male Sprague-Dawley rat at 10 mg/kg, po measured upto 30 hrs by LC-MS/MS analysis; assay type: ADME, organism-based; details: in vivo
[34] = AUC (0 to infinity) in male Sprague-Dawley rat at 2 mg/kg, iv measured upto 30 hrs by LC-MS/MS analysis; assay type: ADME, organism-based; details: in vivo
[35] = Cmax in male Sprague-Dawley rat at 10 mg/kg, po measured upto 30 hrs by LC-MS/MS analysis; assay type: ADME, organism-based; details: in vivo
[36] = Toxicity in NOD-SCID mouse assessed as hyperplasia of crypt in intestine at 60 mg/kg, po measured every 2 days for 21 days by H and E staining based analysis; assay type: organism-based; details: in vivo, 504 h, time 21 day
[37] = Toxicity in BALB/c mouse assessed as animal death at 60 mg/kg, po measured on day 6,7 and 11; assay type: organism-based; details: in vivo, 576 h, time 24 day
[38] = Metabolic stability in human liver microsomes assessed as half life measured upto 60 mins in presence of NADPH by LC/MS-MS analysis; assay type: ADME, Microsome
KMS-11 = assay: Antiproliferative activity against human KMS-11 cells assessed as inhibition of cell growth incubated for 72 hrs by celltiter-glo assay; assay type: functional, cell-based; details: KMS-11, 72 h
AN3-CA = assay: Antiproliferative activity against human AN3-CA cells assessed as inhibition of cell growth incubated for 72 hrs by celltiter-glo assay; assay type: functional, cell-based
[39] = Half life in male Sprague-Dawley rat at 10 mg/kg, po measured upto 30 hrs by LC-MS/MS analysis; assay type: ADME, organism-based; details: in vivo
[40] = AUC (0 to t) in male Sprague-Dawley rat at 10 mg/kg, po measured upto 30 hrs by LC-MS/MS analysis; assay type: ADME, organism-based; details: in vivo

## NC(=O)/C(=C/n1cnc(-c2cc(C(F)(F)F)cc(C(F)(F)F)c2)n1)c1cncnc1 [ELTANEXOR]
[1]
  microsomal CLint: 15.5 µL/min/mg
MOLM-13
  IC50: 435 nM
[2]
  IC50: 550 nM
[3]
  IC50: 8200 nM
[4]
  Cmax: 141 ng/mL
[5]
  Activity: Non-toxic
[6]
  IC50: 2700 nM
[7]
  Activity: Toxic
MM1.S [8]
  IC50: 84.7 nM
[9]
  AUC(0-t) at 30 h: 963 ng·h/mL
[10]
  Activity: Toxic
RPMI-8226
  IC50: 217 nM
MM1.S [11]
  inhibition: Time-dependent-effect
MM1.S [12]
  Activity: Active
[13]
  AUC at 6 h: 83.3 ng·h/mL
[14]
  microsomal CLint: 15.6 µL/min/mg
[15]
  microsomal CLint: 0.2 µL/min/mg
[16]
  half-life: > 2 h
LAMA-84
  IC50: 2910 nM
BXPC-3
  IC50: 2170 nM
[17]
  half-life: 3 h
[18]
  half-life: > 2 h
[19]
  half-life: > 2 h
[20]
  microsomal CLint: 11.8 µL/min/mg
[21]
  Activity: Toxic
[22]
  microsomal CLint: 3.2 µL/min/mg
MV4-11
  IC50: 55.6 nM
[23]
  Activity: Non-toxic
[24]
  Activity: Non-toxic
[25]
  bioavailability: 52%
SW872
  IC50: 1090 nM
MM1.S [26]
  inhibition: Dose-dependent-effect
[27]
  Activity: Active
ARH-77
  IC50: 435 nM
HCT-116
  IC50: 130 nM
[28]
  half-life: > 2 h
[29]
  AUC at 6 h: 1940 ng·h/mL
[30]
  Tmax: 1 h
LoVo
  IC50: 304 nM
[31]
  Activity: Non-toxic
MM1.S [32]
  Activity: Active
[33]
  AUC(0-inf): 2590 ng·h/mL
[34]
  AUC(0-inf): 998 ng·h/mL
[35]
  Cmax: 720 ng/mL
[36]
  Activity: Non-toxic
[37]
  Activity: Toxic
[38]
  half-life: > 2 h
KMS-11
  IC50: 1260 nM
AN3-CA
  IC50: 1170 nM
[39]
  half-life: 2.7 h
[40]
  AUC(0-t) at 30 h: 2540 ng·h/mL
